From PubChem BioAssay AID328 (DTP/NCI, 2004) come the findings set out here.

Several values for one entry are separate records, joined by “and”; a condition that tells them apart may be missing. Identical values can stand only once. Toxic doses and inconclusive results are not listed.

This test concerns BDF1 mice, P388 leukemia ip, median survival T/C. Kind of test: NCI In Vivo Anticancer Drug Screen. Data for tumor model P388 Leukemia (intraperitoneal) in B6D2F1 (BDF1) mice. Conditions: endpoint: median survival time, higher = longer survival. In a few lines: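 Mice carrying the transplantable tumour receive compound or vehicle. Survival is followed in each arm, and the treated measure is divided by the vehicle measure.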

Setting [1] is: dose: 100.0 mg/kg/injection, schedule: Q01DX009 (ip), vehicle: saline.
Setting [2] is: dose: 200.0 mg/kg/injection, schedule: Q01DX009 (ip), vehicle: saline.
Where [3] appears, read: dose: 400.0 mg/kg/injection, schedule: Q01DX009 (ip), vehicle: saline.
The mark [4] stands for this setting: dose: 6.25 mg/kg/injection, schedule: Q01DX009 (ip), vehicle: saline.
Where [5] appears, read: dose: 50.0 mg/kg/injection, schedule: Q01DX009 (ip), vehicle: saline with Tween-80.
The mark [6] stands for this setting: dose: 100.0 mg/kg/injection, schedule: Q01DX009 (ip), vehicle: saline with Tween-80.
Where [7] appears, read: dose: 200.0 mg/kg/injection, schedule: Q01DX009 (ip), vehicle: saline with Tween-80.
[8] abbreviates: dose: 50.0 mg/kg/injection, schedule: Q01DX005 (ip), vehicle: saline with Tween-80.
Where [9] appears, read: dose: 100.0 mg/kg/injection, schedule: Q01DX005 (ip), vehicle: saline with Tween-80.
The mark [10] stands for this setting: dose: 200.0 mg/kg/injection, schedule: Q01DX005 (ip), vehicle: saline with Tween-80.
[11] abbreviates: dose: 100.0 mg/kg/injection, schedule: Q04DX003 (ip), vehicle: Klucel (hydroxypropylcellulose) (HPC).
The mark [12] stands for this setting: dose: 200.0 mg/kg/injection, schedule: Q04DX003 (ip), vehicle: Klucel (hydroxypropylcellulose) (HPC).
The mark [13] stands for this setting: dose: 400.0 mg/kg/injection, schedule: Q04DX003 (ip), vehicle: Klucel (hydroxypropylcellulose) (HPC).
Setting [14] is: dose: 100.0 mg/kg/injection, schedule: Q01DX001 (ip), vehicle: Klucel (hydroxypropylcellulose) (HPC).
The mark [15] stands for this setting: dose: 200.0 mg/kg/injection, schedule: Q01DX001 (ip), vehicle: Klucel (hydroxypropylcellulose) (HPC).

As for `CS(=O)(=O)C(=Cc1ccccc1Cl)S(C)(=O)=O`, the T/C is 104 % of control under setting [1], 118 % of control under setting [2] and 121 % of control under setting [3].

Take `COc1cc(O)c2c(c1)Cc1cc(C)cc(O)c1C2=O`: the T/C reads like this: (dose: 6.25 mg/kg/injection, schedule: Q01DX009 (ip), vehicle: saline with Tween-80) 101 % of control; (dose: 12.5 mg/kg/injection, schedule: Q01DX009 (ip), vehicle: saline with Tween-80) 109 % of control.

Consider `NC(=O)c1ccc[n+](Cc2c(Cl)cccc2Cl)c1`, for which the T/C is 105 % of control (dose: 0.29 mg/kg/injection, schedule: Q01DX009 (ip), vehicle: saline); 115 % of control (dose: 0.44 mg/kg/injection, schedule: Q01DX009 (ip), vehicle: saline); 122 % of control (dose: 1.2 mg/kg/injection, schedule: Q04DX003 (ip), vehicle: saline); 96 % of control (dose: 1.25 mg/kg/injection, schedule: Q01DX009 (ip), vehicle: saline); 160 % of control (dose: 1.56 mg/kg/injection, schedule: Q01DX009 (ip), vehicle: saline); 96 % of control (dose: 2.5 mg/kg/injection, schedule: Q01DX009 (ip), vehicle: saline). In addition, the T/C (dose: 3.12 mg/kg/injection, schedule: Q01DX009 (ip), vehicle: saline) is 185 % of control; the T/C (dose: 4.12 mg/kg/injection, schedule: Q01DX009 (ip), vehicle: saline) is 168 % of control; the T/C (dose: 5.0 mg/kg/injection, schedule: Q01DX009 (ip), vehicle: saline) is 96 % of control; the T/C under setting [4] was 154 % of control and 191 % of control and 200 % of control; the T/C (dose: 8.9 mg/kg/injection, schedule: Q04DX003 (ip), vehicle: saline) was 163 % of control; the T/C (dose: 10.0 mg/kg/injection, schedule: Q01DX009 (ip), vehicle: saline) was 94 % of control. Further, the T/C reads like this: (dose: 13.5 mg/kg/injection, schedule: Q04DX003 (ip), vehicle: saline) 154 % of control and 158 % of control; (dose: 20.0 mg/kg/injection, schedule: Q01DX009 (ip), vehicle: saline) 109 % of control.

In the case of `O=S(=O)(O)c1ccc(/C2=c3\cc/c([n-]3)=C(\c3ccc(S(=O)(=O)O)cc3)c3ccc([n-]3)/C(c3ccc(S(=O)(=O)O)cc3)=c3/cc/c([n-]3)=C(\c3ccc(S(=O)(=O)O)cc3)c3ccc2[n-]3)cc1.[Zn]`, the T/C (dose: 62.5 mg/kg/injection, schedule: Q01DX009 (ip), vehicle: saline with Tween-80) was 106 % of control.

In the case of `CC(C=C1CCCCC1)C(=O)O` (stereo unspecified), the T/C under setting [1] was 113 % of control, the T/C under setting [2] was 109 % of control and the T/C under setting [3] is 118 % of control.

Turning to `COC(=O)c1cccc(OC)c1C(=O)OC`, the T/C (dose: 100.0 mg/kg/injection, schedule: Q04DX002 (ip), vehicle: saline with Tween-80) was 104 % of control and the T/C (dose: 200.0 mg/kg/injection, schedule: Q04DX002 (ip), vehicle: saline with Tween-80) was 102 % of control.

In the case of `CCOCc1cccc2ccccc12`, the T/C by setting is: (dose: 100.0 mg/kg/injection, schedule: Q04DX003 (ip), vehicle: saline with Tween-80) 109 % of control; (dose: 200.0 mg/kg/injection, schedule: Q04DX003 (ip), vehicle: saline with Tween-80) 100 % of control; (dose: 400.0 mg/kg/injection, schedule: Q04DX003 (ip), vehicle: saline with Tween-80) 118 % of control.

Regarding `CCCCCCCCCCN(CCCCCCCCCC)C1CC(OC2CC(O)(C(C)=O)Cc3c(O)c4c(c(O)c32)C(=O)c2c(OC)cccc2C4=O)OC(C)C1O` (stereo unspecified), the T/C by setting is: (dose: 37.5 mg/kg/injection, schedule: Q04DX003 (ip), vehicle: other) 99 % of control; (dose: 75.0 mg/kg/injection, schedule: Q04DX003 (ip), vehicle: other) 103 % of control; (dose: 150.0 mg/kg/injection, schedule: Q04DX003 (ip), vehicle: other) 94 % of control; (dose: 300.0 mg/kg/injection, schedule: Q04DX003 (ip), vehicle: other) 99 % of control; (dose: 400.0 mg/kg/injection, schedule: Q04DX003 (ip), vehicle: other) 90 % of control.

For the compound `Cc1nccn1C[c-]1[c-][c-][c-][c-]1.[Fe].[c-]1[c-][c-][cH-][c-]1`, the T/C was 108 % of control under setting [4]; 99 % of control (dose: 12.5 mg/kg/injection, schedule: Q01DX009 (ip), vehicle: saline); 100 % of control (dose: 25.0 mg/kg/injection, schedule: Q01DX009 (ip), vehicle: saline).

In the case of `Clc1ccccc1-c1nc(-c2ccncc2)no1`, the T/C is, setting by setting: under setting [5], 89 % of control; under setting [6], 93 % of control; under setting [7], 100 % of control.

Take `C(=N\c1ncn[nH]1)/c1ccco1`: the T/C under setting [5] was 111 % of control, the T/C under setting [6] was 99 % of control and the T/C under setting [7] was 102 % of control.

For the compound `O=C(Nc1cccc2ccccc12)ON1C(=O)c2ccccc2C1=O`, the T/C is 110 % of control under setting [8], 115 % of control under setting [9] and 120 % of control under setting [10].

Regarding `BrC1C(Br)C(Br)C2OC2C1Br` (stereo unspecified), the T/C is 100 % of control under setting [11], 105 % of control under setting [12] and 100 % of control under setting [13].

Consider `CC(=O)OC1CCC2(C)C(=CCC3C2CCC2(C)C(OC(=O)c4ccccc4)CCC32)C1` (stereo unspecified), for which the T/C was 100 % of control under setting [14]; 110 % of control under setting [1]; 120 % of control under setting [11]; 100 % of control under setting [15]; 95 % of control under setting [2]; 105 % of control under setting [12]. Also, the T/C reads like this: (dose: 400.0 mg/kg/injection, schedule: Q01DX001 (ip), vehicle: Klucel (hydroxypropylcellulose) (HPC)) 100 % of control; under setting [3], 105 % of control; under setting [13], 110 % of control.

In the case of `NC(=NCCCC(NC(=O)OCc1ccccc1)C(=O)NC(Cc1ccccc1)C(=O)OCc1ccccc1)NC(=O)OCc1ccccc1` (stereo unspecified), the T/C runs as follows: (dose: 12.5 mg/kg/injection, schedule: Q01DX005 (ip), vehicle: saline with Tween-80) 92 % of control; (dose: 25.0 mg/kg/injection, schedule: Q01DX005 (ip), vehicle: saline with Tween-80) 92 % of control; under setting [8], 90 % of control and 101 % of control; under setting [9], 97 % of control; under setting [10], 107 % of control.

For the compound `Cc1ccc2c(ccc3c[n+]4ccccc4c(C)c32)c1`, the T/C was 113 % of control (dose: 12.5 mg/kg/injection, schedule: Q04DX003 (ip), vehicle: saline with Tween-80); 118 % of control (dose: 25.0 mg/kg/injection, schedule: Q04DX003 (ip), vehicle: saline with Tween-80); 122 % of control (dose: 33.0 mg/kg/injection, schedule: Q04DX003 (ip), vehicle: saline with Tween-80).

As to `O=c1[nH]cnc2c1nnn2C1OC(CO)C(O)C1O` (stereo unspecified), the T/C is, setting by setting: (dose: 50.0 mg/kg/injection, schedule: Q01DX006 (ip), vehicle: saline) 95 % of control; (dose: 130.0 mg/kg/injection, schedule: Q01DX006 (ip), vehicle: saline) 117 % of control.

As to `CC1=C/C(=C/c2ccccc2)CC(C)(C)C1` (tested in a mixture with another compound), the T/C was 104 % of control (dose: 25.0 mg/kg/injection, schedule: Q01DX009 (ip), vehicle: saline sonified); 100 % of control (dose: 50.0 mg/kg/injection, schedule: Q01DX009 (ip), vehicle: saline sonified); 100 % of control (dose: 100.0 mg/kg/injection, schedule: Q01DX009 (ip), vehicle: saline sonified).

Take `O=C(/C=C/c1ccc(OCc2ccccc2)cc1)c1ccc(Cl)c(Cl)c1Cl`: the T/C runs as follows: under setting [5], 98 % of control; under setting [6], 90 % of control; under setting [7], 89 % of control.

Consider `O=C(Cn1cc(F)c(=O)[nH]c1=O)c1cccs1`, for which the T/C was 100 % of control under setting [1]; 95 % of control (dose: 100.0 mg/kg/injection, schedule: Q04DX003 (ip), vehicle: saline); 100 % of control under setting [2]; 90 % of control (dose: 200.0 mg/kg/injection, schedule: Q04DX003 (ip), vehicle: saline); 95 % of control under setting [3]; 90 % of control (dose: 400.0 mg/kg/injection, schedule: Q04DX003 (ip), vehicle: saline).

For `COc1cc2c(cc1OC)C1CCN3CCCC3N1CC2` (stereo unspecified), the T/C is, setting by setting: under setting [14], 109 % of control; under setting [15], 90 % of control.
